The target in one test is T1, Full-length human MNK1 (Homo sapiens, UniProt Q9BUB5, T385D).
T1 construct: GST (N); purchased Carna Biosciences 02-145; host or cells: baculovirus expression system
As to the kind of experiment: MNK1 biochemical IC50 assay (Caliper Mobility Shift Assay). As to conditions: read-out: P(IC50) MNK1 (converted).

Another test addresses T2, Full-length human MNK2 (Homo sapiens, UniProt Q9HBH9, T379D).
T2 construct: GST (N); purchased Carna Biosciences 02-146; host or cells: baculovirus expression system
As to the kind of experiment: MNK2 biochemical IC50 assay (Caliper Mobility Shift Assay). The conditions noted are these: read-out: P(IC50) MNK2 (converted).

The subject of test [1] is phosphorylation of eIF4E at ser209 in MV4.11 cell line. Nature of the test: MNK cellular activity phospho-eIF4E detection assay (Alphascreen Surefire). As to conditions: Homo sapiens; MV4.11 cell line, phospho-eIF4E (ser209) Alphascreen Surefire; read-out: P(IC50) elF4E (converted). It counts as cell-based. In a few lines:
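AlphaScreen SureFire sandwich-immunoassay readout of phospho-eIF4E Ser209 in lysed MV4.11 cells; acceptor then donor beads, each 1.5 hr at room temperature. Signal normalised to untreated DMSO-only controls; duplicate curves, values averaged over at least 2 independent experiments.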
(In general: Bead proximity is the source of the signal in Alpha formats.)

T1 sequence (Q9BUB5 1-424 isoform Q9BUB5-2 T344D): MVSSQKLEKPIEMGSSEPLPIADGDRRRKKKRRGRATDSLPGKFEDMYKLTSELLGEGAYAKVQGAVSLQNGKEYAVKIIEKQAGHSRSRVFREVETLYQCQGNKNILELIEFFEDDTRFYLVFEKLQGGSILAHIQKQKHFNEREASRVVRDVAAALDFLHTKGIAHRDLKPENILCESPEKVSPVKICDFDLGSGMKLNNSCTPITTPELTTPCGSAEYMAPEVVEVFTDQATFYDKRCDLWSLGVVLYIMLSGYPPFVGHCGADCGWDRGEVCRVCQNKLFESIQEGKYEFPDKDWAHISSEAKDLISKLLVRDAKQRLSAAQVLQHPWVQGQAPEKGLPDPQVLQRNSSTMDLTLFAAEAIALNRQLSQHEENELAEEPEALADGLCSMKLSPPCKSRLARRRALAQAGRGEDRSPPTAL
T2 sequence (Q9HBH9 whole entry T379D): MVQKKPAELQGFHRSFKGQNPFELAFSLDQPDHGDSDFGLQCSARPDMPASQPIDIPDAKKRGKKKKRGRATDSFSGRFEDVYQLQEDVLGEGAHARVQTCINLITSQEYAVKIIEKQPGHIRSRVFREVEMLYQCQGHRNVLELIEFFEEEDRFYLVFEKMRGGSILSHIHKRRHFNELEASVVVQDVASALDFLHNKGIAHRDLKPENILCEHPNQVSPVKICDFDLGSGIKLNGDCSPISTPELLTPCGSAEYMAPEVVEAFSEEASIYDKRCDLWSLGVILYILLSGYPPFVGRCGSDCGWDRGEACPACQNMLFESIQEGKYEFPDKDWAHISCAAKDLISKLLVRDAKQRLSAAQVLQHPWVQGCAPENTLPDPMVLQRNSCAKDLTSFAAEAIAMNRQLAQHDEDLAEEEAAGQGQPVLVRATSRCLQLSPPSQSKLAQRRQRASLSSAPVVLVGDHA

Regarding `CC(C)Oc1cc(F)ccc1Nc1ncnc2sc(C(=O)NCC3CCN(C)CC3)nc12` [Example 36, 7-{[4-fluoro-2-(propan-2-yloxy)phenyl]amino}-N-[(1-methylpiperidin-4-yl)methyl][1,3]thiazolo[5,4-d]pyrimidine-2-carboxamide], the IC50 (on Full-length human MNK1; on Full-length human MNK2; in test [1]) was 50.1 nM each time.
With `CC1Cc2ccccc2N1c1ncnc2sc(C(=O)NC3CCN(C)CC3)nc12` (stereo not drawn) [Example 123, 7-(2-Methylindolin-1-yl)-N-(1-methyl-4-piperidyl)thiazolo[5,4-d]pyrimidine-2-carboxamide], the results for the IC50 (at Full-length human MNK1; at Full-length human MNK2; in test [1]) were 25.1 nM, 15.8 nM and 20 nM, respectively.
As to `O=C(NC1CCOCC1)c1nc2c(N3CC(CCN4CCCC4)c4cc(F)ccc43)ncnc2s1` (stereo not drawn) [Example 149, 7-[5-fluoro-3-(2-pyrrolidin-1-ylethyl)indolin-1-yl]-N-tetrahydropyran-4-yl-thiazolo[5,4-d]pyrimidine-2-carboxamide], the results for the half-inhibitory concentration (IC50) (on Full-length human MNK1; on Full-length human MNK2; in test [1]) were 31.6 nM, 50.1 nM and 63.1 nM, respectively.
As to `O=C(NC1CCOCC1)c1nc2c(-n3ccc4ccccc43)ncnc2s1` [Example 117, 7-Indol-1-yl-N-tetrahydropyran-4-yl-thiazolo[5,4-d]pyrimidine-2-carboxamide], the IC50 (usually the concentration that gives 50% inhibition) on Full-length human MNK1 was 50.1 nM; on Full-length human MNK2, 31.6 nM; in test [1], 50.1 nM.
Take `O=C(NCC1CCNCC1)c1nc2c(N3c4ccccc4C[C@@H]3CO)ncnc2s1` [Example 138]: the IC50 on Full-length human MNK1 was 398 nM; at Full-length human MNK2, 316 nM; in test [1], 200 nM.
As for `CC(C)Oc1ccccc1Nc1ncnc2sc(C(=O)NCCCN(C)C)nc12` [Example 23, N-[3-(Dimethylamino)propyl]-7-(2-isopropoxyanilino)thiazolo[5,4-d]pyrimidine-2-carboxamide], the IC50 at Full-length human MNK1 is 100 nM; at Full-length human MNK2, 63.1 nM; in test [1], 63.1 nM.
In the case of `CN(C)CCC1CN(c2ncnc3sc(C(=O)NC4CCOCC4)nc23)c2ccc(F)cc21` (stereo not drawn) [Example 148, 7-[3-[2-(dimethyl-amino)ethyl]-5-fluoro-indolin-1-yl]-N-tetrahydro-pyran-4-yl-thiazolo[5,4-d]pyrimidine-2-carboxamide], the IC50 was 50.1 nM at Full-length human MNK1, 63.1 nM on Full-length human MNK2 and 63.1 nM in test [1].
In the case of `O=C(NC1CCOCC1)c1nc2c(N3CCc4cnccc43)ncnc2s1` [Example 43, 7-(2,3-Dihydro-1H-pyrrolo[3,2-c]pyridin-1-yl)-N-(tetrahydro-2H-pyran-4-yl)[1,3]thiazolo[5,4-d]pyrimidine-2-carboxamide], the half-inhibitory concentration (IC50) is 39.8 nM at Full-length human MNK1, 31.6 nM on Full-length human MNK2 and 25.1 nM in test [1].
With `CC(C)Oc1cc(F)ccc1Nc1ncnc2sc(CO)nc12` [Example 48, [7-(4-Fluoro-2-isopropoxy-anilino)thiazolo[5,4-d]pyrimidin-2-yl]methanol], the figures for the IC50 (at Full-length human MNK1; on Full-length human MNK2; in test [1]) were 63.1 nM, 39.8 nM and 20 nM, respectively.
The matching figures for `O=C(NCC1CCOCC1)c1nc2c(N3CCc4ccccc43)ncnc2s1` [Example 103, 7-indolin-1-yl-N-(tetrahydropyran-4-ylmethyl)thiazoto[5,4-d]pyrimidine-2-carboxamide]: 10 nM, 10 nM and 63.1 nM.
For `CCOc1cc(F)ccc1Nc1ncnc2sc(C(=O)NCCCN(C)C)nc12` [Example 24, N-[3-(Dimethylamino)propyl]-7-(2-ethoxy-4-fluoro-anilino)thiazolo[5,4-d]pyrimidine-2-carboxamide], the IC50 at Full-length human MNK1 is 100 nM; on Full-length human MNK2 it was 100 nM; in test [1] it was 79.4 nM.
For the compound `CO[C@@H]1CCC[C@H](Oc2cc(F)ccc2Nc2ncnc3sc(C(=O)NCC4CCNCC4)nc23)C1` [Example 61, 7-[4-fluoro-2-[(1S,3R)-3-methoxycyclohexoxy]anilino]-N-(4-piperidylmethyl)thiazolo[5,4-d]pyrimidine-2-carboxamide], the IC50 was 100 nM at Full-length human MNK1, 126 nM on Full-length human MNK2 and 79.4 nM in test [1].
For the compound `O=C(NC1CCOCC1)c1nc2c(N3CCc4ccccc43)ncnc2s1` [Example 106, 7-Indolin-1-yl-N-tetrahydropyran-4-yl-thiazolo[5,4-d]pyrimidine-2-carboxamide], the IC50 at Full-length human MNK1 is 12.6 nM; on Full-length human MNK2, 7.94 nM; in test [1], 20 nM.
The matching figures for `CC(C)(O)c1nc2c(N3CCc4cc(F)ccc43)ncnc2s1` [Example 82, 2-[7-(5-Fluoroindolin-1-yl)thiazolo[5,4-d]pyrimidin-2-yl]propan-2-ol]: 31.6 nM, 31.6 nM and 158 nM.
For `CNC(=O)c1nc2c(N3CC(CCO)c4ccccc43)ncnc2s1` (stereo not drawn) [Example 157], the IC50 was 31.6 nM at Full-length human MNK1, 20 nM at Full-length human MNK2 and 10 nM in test [1].
The matching figures for `CC1Cc2ccccc2N1c1ncnc2sc(C(=O)NCC3CCNCC3)nc12` (stereo in doubt) [Example 134, 7-[(2R)-2-methylindolin-1-yl]-N-(4-piperidyl-methyl)thiazolo[5,4-d]pyrimidine-2-carboxamide]: 31.6 nM, 25.1 nM and 39.8 nM.
For `CC1Cc2ccccc2N1c1ncnc2sc(C(=O)NCCCN(C)C)nc12` (stereo not drawn) [Example 124] the same measures were 25.1 nM, 20 nM and 31.6 nM.
Regarding `CN1CCN(c2ncnc3sc(C(=O)NCC4CCNCC4)nc23)c2ccc(F)cc21` [Example 57, 7-(6-fluoro-4-methyl-2,3-dihydroquinoxalin-1-yl)-N-(4-piperidylmethyl)thiazolo[5,4-d]pyrimidine-2-carboxamide], the IC50 (on Full-length human MNK1; on Full-length human MNK2; in test [1]) was 251 nM in each case.
`CN(C)CCCNC(=O)c1nc2c(N3CCc4cccc(F)c43)ncnc2s1` [Example 92, N-[3-(dimethylamino)propyl]-7-(7-fluoroindolin-1-yl)thiazolo[5,4-d]pyrimidine-2-carboxamide]: the half-inhibitory concentration (IC50) on Full-length human MNK1 is 158 nM; on Full-length human MNK2 it was 126 nM; in test [1], 251 nM.
Regarding `CC(C)Oc1cc(F)ccc1Nc1ncnc2sc(C(=O)NC3CCN(C)CC3)nc12` [Example 32, 7-{[4-fluoro-2-(propan-2-yloxy)phenyl]amino}-N-(1-methylpiperidin-4-yl)[1,3]thiazolo[5,4-d]pyrimidine-2-carboxamide], the values for the IC50 (on Full-length human MNK1; at Full-length human MNK2; in test [1]) were 50.1 nM, 39.8 nM and 39.8 nM, respectively.
As for `CC(C)Oc1c(F)cccc1Nc1ncnc2sc(C(=O)NCCCN(C)C)nc12` [Example 18, N-[3-(dimethylamino)propyl]-7-(3-fluoro-2-isopropoxy-anilino)thiazolo[5,4-d]pyrimidine-2-carboxamide], the IC50 is 50.1 nM at Full-length human MNK1, 50.1 nM at Full-length human MNK2 and 39.8 nM in test [1].
For the compound `CC(C)Oc1cc(F)ccc1Nc1ncnc2sc(C(=O)NC3CCS(=O)(=O)CC3)nc12` [Example 34, N-(1,1-dioxidotetrahydro-2H-thiopyran-4-yl)-7-{[4-fluoro-2-(propan-2-yloxy)phenyl]amino}[1,3]thiazolo[5,4-d]pyrimidine-2-carboxamide], the IC50 is 200 nM at Full-length human MNK1, 158 nM on Full-length human MNK2 and 79.4 nM in test [1].

For the origin of these results see patent publication US10669284B2, “Fused thiazolopyrimidine derivatives as MNKS inhibitors” (LIFEARC, priority 2015, dated 2020).
